Reference: patent US7705016B2, “Regulation of food intake by modulation of long-chain fatty acyl-CoA levels in the hypothalamus” (Albert Einstein College of Medicine of Yeshiva University, priority 2003, dated 2010)

System: CPT1M mRNA
Assay: CPT1M mRNA in hypothalamic nuclei micro punches by real-time PCR after ICV injection
Type: in vivo, rat
Conditions: 3 days after ICV injection
Procedure: Surgical implantation of ICV cannulae was performed on day 1 (˜3 weeks prior to the in vivo study). Full recovery of body weight and food intake was achieved by day 7. Rats randomized for ribozyme treatment received an ICV injection of CPT1L-Ribo, CPT inhibitors or controls on day 17. The experimental group treated with TDGA received ICV injection of the inhibitor on day 21, 6 hr prior to the harvesting of brains. Panels B. and C. show quantitation of CPT1L (B) and CPT1M (C) mRNA by real-time PCR. RNA was purified from individual hypothalamic nuclei (PVN, LHA, and arcuate), which were obtained by micro punch technique 3 days after ICV injection of pTarget control (▪; N=4) or CPT1LRibo (□; N=5). […] CPT1 activity was measured in the particulate fraction of protein extracts from animals treated with ICV control injections (▪; N=6, receiving aCSF+2% DMSO or Control Ribo), TDGA ( ?; N=6), or CPTL-Ribo (□; N=5). […] Levels of stearoyl-CoA (F) and oleyl-CoA (E) respectively were measured by HPLC in arcuate of rats injected ICV with control compound (▪; ST1340) or ST1326 (□).
ICV catheters were implanted in male Sprague-Dawley rats by stereotaxic surgery (Obici et al., 2002a; Obici et al., 2001; Liu et al., 1998). […] Thus, we next measured CPT1 activity in ARC and in whole hypothalamus. […]
Quantitation of CPT1 and neuropeptides mRNA by Northern and real-time PCR. […]

For “CPT1L-Ribo: plasmid (pTarget, CMV promoter) expressing a hammerhead ribozyme that specifically cleaves rat CPT1L mRNA, complexed to PEI for ICV injection (DNA CUGUACCAAAGAGCUGUAGAGUCCGUGAGGACGAAACGCCGCUCACAAUG)”, which “CPT1M mRNA expression in hypothalamic nuclei” value is on record?
Its value is “not appreciably altered”.
